{"source": "patent US20240261440A1", "about": "“COMPOSITIONS, METHODS AND USES FOR TREATING CYSTIC FIBROSIS AND RELATED DISORDERS” (The Board of Regents of The University of Texas System, priority 0001, published 2024)", "test_system": "C57BL/6 mice", "assay": "In vivo Luc mRNA delivery (IVIS luminescence imaging)", "set-up": "species or system mouse", "conditions": "0.1 mg kg-1 Luc mRNA, i.v., 6h; 20% to 50% cationic lipid", "procedure": "C57BL/6 mice with weight at around 20 g were i.v. injected with various Luc mRNA formulations (0.1 mg kg^−1 of Luc mRNA, n=3 per group). After 6 hours, these mice were injected with D-Luciferin (150 mg kg^−1, intraperitoneal) and imaged immediately using an IVIS Lumina system (Perkin Elmer). Afterwards, these mice were killed, and tissues were excised for ex vivo imaging using IVIS Lumina system.", "data": [{"smiles": "CCCCCCCC/C=C\\CCCCCCCC(=O)OCC(C[N+](C)(C)C)OC(=O)CCCCCCC/C=C\\CCCCCCCC", "note": "(stereo not shown) [DOTAP, 1,2-dioleoyl-3-trimethylammonium-propane]", "values": [{"measurement": "luciferase expression in mouse lungs, permanently cationic lipid screen in mDLNP-2", "value": "higher luminescence activity than others"}]}]}
